The assay has as its system spontan hypertensiven Ratte. The assay can be described thus: Blood pressure lowering in the spontaneously hypertensive rat after oral dosing. It counts as in vivo. The settings on record: lowest dose that still lowers blood pressure by at least 15 mm Hg, read-out: niederste noch wirksame, orale Dosis. The source says:
Die in der folgenden Tabelle angeführten Verbindungen senken an der spontan hypertensiven Ratte den Blutdruck um mindestens 15 mm Hg. Angegeben ist die niederste noch wirksame, orale Dosis.

Consider `CC(NC(=O)c1ccccc1C(=O)Nc1ccccc1)C(C)(C)C` (stereo not drawn) [Beispiel 12, N-Phenyl-N'-(1,2,2-trimethylpropyl)-phtalamid], for which the minimal effective dose came to 10 mg/kg.
Regarding `CCOc1ccccc1NC(=O)c1ccccc1C(=O)NC(C)C(C)(C)C` (stereo not drawn) [Beispiel 13, N-(2-Ethoxyphenyl)-N'-(1,2,2-trimethylpropyl)-phtalamid], the minimal effective dose was found to be 10 mg/kg.
The value for `CC(NC(=O)c1ccccc1C(=O)Nc1cccnc1)C(C)(C)C` (stereo not drawn) [Beispiel 26, N-(3-Pyridyl)-N'-(1,2,2-trimethylpropyl)-phtalamid] was 3 mg/kg.

The values are drawn from patent EP0119428A2, “Biscarboxamides for treating diseases, and process for their preparation” (BAYER AG, priority 1983, dated 1984).
